Laboratory results reported in patent US9675592B2, “Methods and compositions for bacteria infections” (priority 2013, dated 2017).

Columns and labels:
[1] = test system: vanA containing VRSA strain VRS1; settings: cited from earlier work
[2] = test system: vancomycin intermediate resistant Staphylococcus aureus strain, VISA 2283; settings: cited from earlier work
[3] = molecular target: cytoplasmic domain of VraS (VraS-C) (Staphylococcus aureus, UniProt Q99SZ7); test: biochemical; format: binding
cytoplasmic domain of VraS (VraS-C), sequence (Q99SZ7 70-347): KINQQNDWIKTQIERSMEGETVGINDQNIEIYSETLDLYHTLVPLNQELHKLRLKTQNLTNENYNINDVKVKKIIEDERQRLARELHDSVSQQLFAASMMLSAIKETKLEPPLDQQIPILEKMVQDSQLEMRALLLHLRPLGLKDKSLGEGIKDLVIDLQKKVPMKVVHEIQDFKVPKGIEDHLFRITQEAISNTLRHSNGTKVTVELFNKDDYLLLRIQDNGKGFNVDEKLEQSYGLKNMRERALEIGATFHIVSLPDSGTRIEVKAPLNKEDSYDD

[4] = molecular target: PurC (unrelated protein, control) (Bacillus anthracis, UniProt Q81ZH5); format: binding; settings: read-out: KD PurC (control)
PurC (unrelated protein, control), sequence (Q81ZH5 whole entry, looked up): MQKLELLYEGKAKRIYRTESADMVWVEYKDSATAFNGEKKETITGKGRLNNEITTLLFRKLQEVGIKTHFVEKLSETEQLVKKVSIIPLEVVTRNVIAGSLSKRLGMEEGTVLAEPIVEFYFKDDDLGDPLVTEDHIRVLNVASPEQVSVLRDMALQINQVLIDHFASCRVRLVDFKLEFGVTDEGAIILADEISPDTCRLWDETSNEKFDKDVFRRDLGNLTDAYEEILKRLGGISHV

[5] = test system: vanA containing VRSA strain VRS2; settings: cited from earlier work
[6] = test system: hetero VISA isolate, hVISA 2275; settings: cited from earlier work
VraR = VraR (Staphylococcus aureus, UniProt Q7A4R9); test: biochemical; format: binding; settings: His-tagged VraR; NB = No Binding
VraR, sequence (Q7A4R9 whole entry): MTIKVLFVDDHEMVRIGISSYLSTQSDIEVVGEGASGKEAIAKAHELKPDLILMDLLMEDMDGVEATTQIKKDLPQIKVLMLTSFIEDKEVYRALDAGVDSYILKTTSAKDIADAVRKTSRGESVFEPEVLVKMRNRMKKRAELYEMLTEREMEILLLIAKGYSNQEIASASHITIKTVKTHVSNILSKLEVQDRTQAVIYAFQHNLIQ

923 containing pPvra-lux = test: Oxacillin MIC of test strain in 96-well format; format: cell-based, Staphylococcus aureus
strain 923 [7] = test: Oxacillin MIC of strain 923; format: cell-based; settings: Staphylococcus aureus; strain 923, cultured in the 96-well format
multiple strains of MRSA = test: MICs (minimal inhibitory concentrations) vs multiple strains of MRSA; format: cell-based, Staphylococcus aureus; settings: no compound
strain 923 [8] = settings: strain 923, CLSI guidelines; cited from earlier work
[9] = test system: vraSR expression (Pvra-lux reporter in strain 923); test: Validation of test strain: oxacillin induction of luminescence; format: cell-based, Staphylococcus aureus; settings: luminescence of 923 Pvra-lux, 2 hours

For Cc1cc(/C=C/c2ccc3cc(N(C)C)ccc3[n+]2C)c(C)n1-c1ccccc1 [Pyr, Pyrvinium], the “fold decrease Van MIC” value [1] is listed as 64 fold, the “potentiation of vancomycin” value [1] is listed as “fully potentiated” and the “MIC compound (Clo, Pyr, Gos)” value ([1]; compound alone) is listed as 2.24 µg/mL. For the same compound, the Synergy category ([2]; VISA 2283) was “non syn”, the “potentiation of vancomycin” value ([2]; VISA) was “not” and the “binding to VraS-C” value ([3]; SPR) was “binds”. For the same compound, the “RUmax VraS” value ([3]; new run with His-tagged VraS) was 46.5 ± 2.9, the Kd ([3]; new run with His-tagged VraS, NB = No Binding, read-out: KD VraS) was 21.3 ± 3.6 µM and the Kd [4] was over 100 µM. The Synergy category [5] was “synergistic (An FICi of ≦0.5 defines a synergistic interaction)”, the “potentiation of vancomycin” value [5] was “fully potentiated” and the “MIC compound (Clo, Pyr, Gos)” value ([5]; compound alone) was 1.12 µg/mL. The “MIC (in combination) Clo+, Pyr+, Gos+” value ([6]; MIC of the compound in combination with the indicated Van concentration, hVISA 2275) was 0.56 µg/mL, the “MIC compound (Clo, Pyr, Gos)” value ([6]; compound alone, hVISA 2275) was 16 µg/mL and the “FICi V + compound” value ([6]; hVISA 2275) was 0.54. The Synergy category ([6]; hVISA 2275) was “partial (partially potentiated vancomycin (FIC i>0.5 and <1.0))”, the “fold decrease Van MIC” value ([6]; hVISA 2275) was 2 fold and the “potentiation of vancomycin” value ([6]; hVISA) was “partially potentiated”. The “Van FIC” value ([6]; in combination with compound, hVISA 2275) was 0.50, the “Clo FIC, Pyr FIC, Gos FIC” value ([6]; in combination with vancomycin, hVISA 2275) was 0.04 and the “MIC (in combination) Van+” value ([6]; vancomycin MIC when used in combination with compound, hVISA 2275) was 2 µg/mL. For the same compound, the Kd (VraR) was over 100 µM.
In the case of Cc1onc(-c2ccccc2)c1C(=O)N[C@@H]1C(=O)N2[C@@H]1SC(C)(C)[C@@H]2C(=O)O [oxacillin, reference compound], the MIC of oxacillin (923 containing pPvra-lux) is reported as 5 µg/mL, the MIC (strain 923 [7]) is reported as 8 µg/mL and the “Ox MIC alone” value (multiple strains of MRSA; isolate 923, SCCmec IV, ST 8) is reported as 16 µg/mL. For the same compound, the “Ox MIC alone” value (multiple strains of MRSA; isolate 1176, SCCmec II, ST 231) was 32 µg/mL, the “Ox MIC alone” value (multiple strains of MRSA; isolate 2169, SCCmec IV, ST 72) was 16 µg/mL and the “Ox MIC alone” value (multiple strains of MRSA; isolate 8004-01, SCCmec III, ST 239) was 256 µg/mL. The “Ox MIC alone” value (multiple strains of MRSA; isolate 8010-01, SCCmec IV, ST 8) was 16 µg/mL, the “Ox MIC alone” value (multiple strains of MRSA; isolate 8227-01, SCCmec IV, ST 87) was 2 µg/mL and the “Ox MIC alone” value (multiple strains of MRSA; isolate 11095, SCCmec II, ST 105) was 256 µg/mL. For the same compound, the “Ox MIC alone” value (multiple strains of MRSA; isolate 13113, SCCmec II, ST 5) was 16 µg/mL, the “Ox MIC alone” value (multiple strains of MRSA; isolate 13354, SCCmec IV, ST 5) was 8 µg/mL and the “Ox MIC alone” value (multiple strains of MRSA; isolate 14315, SCCmec IV, ST 1) was 32 µg/mL. For the same compound, the “Ox MIC alone” value (multiple strains of MRSA; isolate Q2461, SCCmec VT, ST 59) was 8 µg/mL, the “24-h oxacillin MIC” value (strain 923 [8]) was 16 to 32 µg/mL and the “minimum concentration sufficient for maximal vraSR expression” value [9] was 2 µg/mL.
